From publication PMC4492750, “The discovery of a selective and potent A2a agonist with extended lung retention” (Pharmacology Research & Perspectives, 2015) come the findings set out here.

Data set [1] has as its system LPS-induced BAL neutrophils. In words: LPS-induced lung inflammation model, neutrophils in BAL fluid. As to conditions: for Reduction of total cells and neutrophilia in BAL fluid: 10 μg/kg i.t. Format: in vivo, rat. How it is done: The efficacy of the compound on neutrophils in BAL fluid is expressed as per cent inhibition of the full window (negative veh/veh controls vs. the positive veh/LPS controls): Inhibition (%) of LPS-induced BAL neutrophils by compound 2 was calculated using the following formula: [drawing 1] where A is the average in the group administered with vehicle and challenged with LPS; B is the average in the group administered with vehicle and challenged with saline; and C is the average in the group administered with test compound and challenged with LPS.
Animals in all efficacy studies were dosed intratracheally as described above in a buffered saline vehicle (pH 5) containing sodium chloride (8.5mg/ml), citric acid (0.28mg/ml) and sodium citrate (0.5mg/ml). The compound was dissolved in saline when given intravenously (0.9% NaCl) to the swivelled rats.
[…] Each rat was given LPS from the Pseudomona Aeruginosa bacteria (1µg/rat, 5µg/ml saline, Sigma-Aldrich, Sweden).
24 hours after the LPS challenge, rats were anaesthetized and exsanguinated via a cardiac incision. A tube was inserted and ligated to the trachea. The tube was connected to a syringe with 4ml PBS (without Ca^2+/Mg^2+) and a lavage of the whole lung was performed manually. The BAL fluid was collected individually in polyethylene tubes and kept on ice until further processed.
The BAL fluid was centrifuged and the supernatant separated from the cell pellet that was resuspended in 1.0ml of PBS. The total number of cells and cell differentia was counted in an automated cell counter and haematology analyzer (SYSMEX XT-1800iV, software for the rat BALF).

Data set [2] can be described thus: In vivo pharmacokinetics in rats (i.v., oral, intratracheal). How it is done:
Rat PK was determined after an i.v. dose of 0.1μmol/kg (approximately 50μg/kg, 1ml/kg, TEG:H2O 50:50) given via a catheter in vena jugularis. The PK after oral administration was performed at a dose of 6μmol/kg (approximately 3mg/kg, 4ml/kg, 0.5% HPMC) given by gavage. Intratracheal PK was determined at 0.03 to 0.6μmol/kg (17 to 300μg/kg, 1ml/kg, in a vehicle containing sodium chloride (8.5mg/ml), EDTA (0.1mg/ml), citric acid (0.15mg/ml), sodium citrate (0.5mg/ml) and polysorbate 80 (0.2mg/mL) in purified water). The i.t. dose was given to anaesthetized (isofluran) rats, positioned at approximately 30° angle (head up) and the compound was administered in the trachea using a modified metal cannula. Rats were put back in their cages while regaining consciousness. Serial blood sampling of 100 to 200µl was performed after i.v. and p.o. dosing at pre-defined timepoints. Blood was mixed 1:4 with purified water containing heparin (10 to 30U/ml) in order to haemolyse the blood cells, and then placed in a 96-well plate and stored at –70°C until analysed. The dilution factor was accounted for in the data analysis. After i.t. dosing, animals were euthanized with isoflurane or pentobarbital at defined timepoints after dosing, blood samples taken from the vena jugularis or arteria carotis, handled and stored as described above. The rats were bled to drain as much blood as possible from the lungs. The lungs including the trachea were carefully dissected out with all non-relevant tissue removed, placed in pre-weighed vials and weighed. The lung vials were stored at –70°C until analyzed.
Lung tissue was frozen in liquid nitrogen and homogenised using a CryoPrep pneumatic hammer. The homogenisation of the tissue and the extraction of the compound were done in 4ml Ringer solution with an Adaptive Focused Acoustic Instrument. 50µl of the supernatant was transferred to a 96-well plate. All lung, blood and plasma samples were analysed by LC-MS/MS using a selective and sensitive method. Peak areas were used in comparison to those produced by the standard curve to determine parent compound concentrations. Homogenate concentrations were adjusted to account for the sample dilutions to give tissue concentrations.

Data set [3] deals with T1, A3 (Homo sapiens, UniProt P0DMS8).
T1 sequence (P0DMS8 1-318): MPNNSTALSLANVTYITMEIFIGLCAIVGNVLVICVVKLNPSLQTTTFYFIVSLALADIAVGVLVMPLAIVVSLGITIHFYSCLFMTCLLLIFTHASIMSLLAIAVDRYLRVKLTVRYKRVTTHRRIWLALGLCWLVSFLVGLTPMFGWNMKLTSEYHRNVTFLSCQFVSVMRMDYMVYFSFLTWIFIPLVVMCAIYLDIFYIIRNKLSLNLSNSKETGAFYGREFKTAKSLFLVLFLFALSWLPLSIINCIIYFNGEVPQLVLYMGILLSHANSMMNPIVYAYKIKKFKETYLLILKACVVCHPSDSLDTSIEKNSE
The experiment in a line: Selectivity panel of 98 targets in binding assays (Ricerca): A3. Also on record: Ricerca (contract panel). As to conditions: 10 μmol/L of compound; data on AstraZeneca file. How it is done:
The medicinal chemistry synthetic optimization focused on the position C2 and N6 (Fig.2) with the aim to discover a compound with high A2a potency, high selectivity, low lipophilicity (logD), and high solubility. […] Selectivity of compound 2 was tested across 98 targets in binding assays (www.ricerca.com). The only identified significant hits (i.e., >50% effect at 10 μmol/L of compound 2) were A2a (∼100%) and A3 (∼84%) data on AstraZeneca file.

Broadly, the half-life is the time needed for the level to fall by half in the phase considered. In general, bioavailability refers to the share of a dose that reaches the circulation, judged against a reference dose that is usually intravenous. For `CCNC(=O)[C@H]1O[C@@H](n2cnc3c(NC(CC)CC)nc(NCCNC(=O)Nc4cc[n+](C)cc4)nc32)[C@H](O)[C@@H]1O` [Compound 2, (2S,3S,4R,5R)-N-ethyl-5-[6-(1-ethylpropylamino)-2-[2-[(1-methylpyridin-1-ium-4-yl)carbamoylamino]ethylamino]purin-9-yl]-3,4-dihydroxy-tetrahydrofuran-2-carboxamide], the “Inhibition of recovered neutrophils in BAL fluid” value in data set [1] (0.1 μg/kg i.t. single dose 24 h prior to LPS) is 9%; in data set [1] (1 μg/kg i.t. single dose 24 h prior to LPS) it was 17%; in data set [1] (10 μg/kg i.t. for five consecutive days, LPS 24 h after last dose), 53%; in data set [1] (10 μg/kg i.t. for three consecutive days, LPS 24 h after last dose), 39%; in data set [1] (10 μg/kg i.t. single dose 24 h prior to LPS (n.s., P = 0.086)), 39%. For the same compound, the “Reduction of total cells and neutrophilia in BAL fluid” value in data set [1] (36 and 24 h pre-treatment before LPS) is reported as “significant reduction”; in data set [1] (12 h pretreatment before LPS), “not significant”. Further, in data set [1] (single i.t. dose of 10 μg/kg, rodents, previous dose-response studies), the “Maximum inhibition of neutrophil recruitment” value was 40–50%. In addition, the “Increase of rat lung t½ in comparison with UK-432,097” value in data set [2] (i.t.) was determined as 13 fold. Besides, in data set [2] (i.v., mean of n = 3), the Rat blood clearance is reported as 19 mL/min per kg. The half-life in data set [2] (lung, inhaled or intranasal, rat, intratracheal dosing, n = 2/time point, read-out: Lung t½ (terminal half-life in lung) (converted)) was 53 h. Also, the Kp at 24 h in data set [2] (other: intratracheal (i.t.), rat, i.t., ratio of lung concentration 24 h after dose to blood Cmax after same dose, read-out: Lung/blood split) is 460. Besides, in data set [2] (rat, single i.t. dose (17 and 20 μmol/kg for compounds 2 and 3 as printed in Fig. 5), 24 h), the “Percentage of dose remaining in lung at 24 h” value was 28%. In data set [2] (whole blood, 6 umol/kg, rat, oral, mean of n = 3, read-out: Rat oral F (bioavailability)), the bioavailability amounted to 0.3%. Also, the “Effect in binding assay, A3” value in data set [3] is on record as ~84%.
